{
  "source": "patent US20050031557A1",
  "about": "“Oral administration of beta-carotene, lycopene and lutein for human skin protection” (priority 1999, published 2005)",
  "system": "healthy skin of light type II",
  "experiment": "Photoprotection study in volunteers with oral carotinoid supplementation over 12 weeks",
  "assay_type": "in vivo, human",
  "experimental": "The carotinoid absorption and photoprotection studies were carried out using a panel of 36 volunteers with healthy skin of light type II (Fitzpatrick & Pathak test). The starting values for each volunteer were determined at the beginning of the 12-week study. An interim study was conducted after 6 weeks and the final study after 12 weeks. The volunteers were divided into three groups of twelve who received the following daily doses: • 1st group: 25 mg Betatene® (corresponds to 24 mg β-carotene) • 2nd group: 8.3 mg Betatene® (corresponds to 8 mg β-carotene), 8 mg lycopene, 8 mg lutein (Xangold®) • 3rd group: placebo capsules.\nThe carotinoids were administered in soft gelatine capsules with 140 mg soybean oil.\nThe concentration of β-carotene, lycopene and lutein in the skin was determined by reflection spectrometry which was carried out on an area of 1 cm^2 of the forehead, the back of the hand, the palm of the hand, the inside of the lower arm and the back. The change in color of the skin during supplementation was differentiated by a Minolta chromameter (L, a, b system) into reddening of the skin (a values), yellow component (b values) and lightness of the skin (L values). The concentration of β-carotene, lycopene and lutein in the serum was determined by high-pressure liquid chromatography (HPLC). […]",
  "data": [
    {"smiles": "CC1=C(/C=C/C(C)=C/C=C/C(C)=C/C=C/C=C(C)/C=C/C=C(C)/C=C/C2=C(C)CCCC2(C)C)C(C)(C)CCC1", "note": "[β-carotene]", "values": [
      {"measurement": "photoprotection of the skin in relation to the blank value (in words)", "setting": "12 weeks of daily oral dosing, versus placebo group 3", "result": "doubles the photoprotection of the skin"},
      {"measurement": "Photoprotection", "setting": "average of 12 volunteers per group after 12 weeks of daily oral dosing in soft gelatine capsules with soybean oil, relative to blank value (group 3, no carotinoids = 100), group 1: 24 mg β-carotene, group 2: 8 mg each of β-carotene, lycopene, lutein", "result": 200, "unit": "%-rel."}
    ]}
  ]
}
